Measurements reported in patent publication US11274095B2, “Modulators of methyl modifying enzymes, compositions and uses thereof” (Constellation Pharmaceuticals, Inc., priority 2018, dated 2022).
Read-outs that look alike come from different tables or passages of the source.

What was measured:
PRC2 containing wt EZH2 [1] = biological target: T1, PRC2 containing wt EZH2 (Homo sapiens (Human), UniProt Q15910); assay: EZH2 residence time assay (100-fold dilution of enzyme-inhibitor complex); type: biochemical
T1 sequence (Q15910 whole entry): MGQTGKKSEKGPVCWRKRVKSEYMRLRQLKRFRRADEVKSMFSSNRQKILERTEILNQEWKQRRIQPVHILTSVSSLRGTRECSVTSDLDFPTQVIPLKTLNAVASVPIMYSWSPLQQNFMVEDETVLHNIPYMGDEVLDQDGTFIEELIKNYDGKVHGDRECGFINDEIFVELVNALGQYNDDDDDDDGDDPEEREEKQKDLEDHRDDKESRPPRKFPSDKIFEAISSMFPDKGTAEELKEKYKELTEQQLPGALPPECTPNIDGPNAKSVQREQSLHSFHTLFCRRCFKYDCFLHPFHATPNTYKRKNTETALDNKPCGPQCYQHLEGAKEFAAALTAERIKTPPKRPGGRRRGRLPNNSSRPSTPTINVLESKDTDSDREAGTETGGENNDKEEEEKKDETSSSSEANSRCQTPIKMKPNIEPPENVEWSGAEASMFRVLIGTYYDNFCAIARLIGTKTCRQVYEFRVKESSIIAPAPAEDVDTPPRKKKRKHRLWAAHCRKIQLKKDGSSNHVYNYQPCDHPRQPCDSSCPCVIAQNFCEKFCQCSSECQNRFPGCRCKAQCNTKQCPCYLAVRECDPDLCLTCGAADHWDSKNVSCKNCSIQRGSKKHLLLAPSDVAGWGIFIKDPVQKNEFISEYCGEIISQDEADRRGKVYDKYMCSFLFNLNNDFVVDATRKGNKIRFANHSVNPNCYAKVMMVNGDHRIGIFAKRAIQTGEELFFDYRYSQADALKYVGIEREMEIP
T1 sequence (O75530 whole entry partner): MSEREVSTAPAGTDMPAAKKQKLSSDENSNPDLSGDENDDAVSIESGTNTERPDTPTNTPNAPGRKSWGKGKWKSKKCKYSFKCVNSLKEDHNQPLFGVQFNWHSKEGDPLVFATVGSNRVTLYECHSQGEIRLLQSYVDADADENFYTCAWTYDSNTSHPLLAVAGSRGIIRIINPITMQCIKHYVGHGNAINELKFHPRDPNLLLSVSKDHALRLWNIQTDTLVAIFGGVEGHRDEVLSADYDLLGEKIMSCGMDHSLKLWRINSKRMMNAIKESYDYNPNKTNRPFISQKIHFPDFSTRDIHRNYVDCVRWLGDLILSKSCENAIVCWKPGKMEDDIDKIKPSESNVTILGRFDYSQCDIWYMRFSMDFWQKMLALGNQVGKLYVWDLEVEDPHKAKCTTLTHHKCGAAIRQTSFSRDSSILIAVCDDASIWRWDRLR
T1 sequence (Q15022 whole entry partner): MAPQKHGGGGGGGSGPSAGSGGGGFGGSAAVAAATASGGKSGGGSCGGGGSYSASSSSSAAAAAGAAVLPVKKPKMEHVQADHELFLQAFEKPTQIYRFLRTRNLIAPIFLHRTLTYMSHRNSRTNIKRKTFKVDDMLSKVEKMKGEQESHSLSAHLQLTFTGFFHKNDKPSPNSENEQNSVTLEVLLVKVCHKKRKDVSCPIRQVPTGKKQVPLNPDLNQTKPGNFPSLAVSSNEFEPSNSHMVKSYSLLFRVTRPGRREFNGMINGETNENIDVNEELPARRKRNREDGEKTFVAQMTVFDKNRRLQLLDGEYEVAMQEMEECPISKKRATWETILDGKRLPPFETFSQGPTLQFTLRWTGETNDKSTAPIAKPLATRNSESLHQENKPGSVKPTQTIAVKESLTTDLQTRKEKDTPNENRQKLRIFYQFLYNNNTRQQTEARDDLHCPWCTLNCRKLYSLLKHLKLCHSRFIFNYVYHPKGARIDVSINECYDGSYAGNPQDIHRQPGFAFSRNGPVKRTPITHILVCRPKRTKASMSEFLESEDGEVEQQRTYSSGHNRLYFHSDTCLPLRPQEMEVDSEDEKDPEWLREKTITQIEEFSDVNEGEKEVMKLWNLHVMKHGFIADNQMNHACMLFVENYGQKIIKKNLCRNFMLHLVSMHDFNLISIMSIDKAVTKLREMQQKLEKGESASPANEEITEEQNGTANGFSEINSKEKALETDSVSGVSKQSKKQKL
T1 sequence (Q09028 whole entry partner): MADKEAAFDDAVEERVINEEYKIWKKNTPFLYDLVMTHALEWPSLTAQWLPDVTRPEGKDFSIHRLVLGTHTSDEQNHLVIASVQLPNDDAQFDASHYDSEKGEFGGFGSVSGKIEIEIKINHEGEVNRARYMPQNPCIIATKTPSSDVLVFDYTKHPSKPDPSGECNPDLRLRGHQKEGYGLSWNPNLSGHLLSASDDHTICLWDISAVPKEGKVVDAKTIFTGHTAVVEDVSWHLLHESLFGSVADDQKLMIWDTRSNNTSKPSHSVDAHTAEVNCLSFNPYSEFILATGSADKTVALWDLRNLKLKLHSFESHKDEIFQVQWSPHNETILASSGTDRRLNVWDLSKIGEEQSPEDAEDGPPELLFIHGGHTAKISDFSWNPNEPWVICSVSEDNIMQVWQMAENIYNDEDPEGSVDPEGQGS
T1 sequence (Q6ZN18 whole entry partner): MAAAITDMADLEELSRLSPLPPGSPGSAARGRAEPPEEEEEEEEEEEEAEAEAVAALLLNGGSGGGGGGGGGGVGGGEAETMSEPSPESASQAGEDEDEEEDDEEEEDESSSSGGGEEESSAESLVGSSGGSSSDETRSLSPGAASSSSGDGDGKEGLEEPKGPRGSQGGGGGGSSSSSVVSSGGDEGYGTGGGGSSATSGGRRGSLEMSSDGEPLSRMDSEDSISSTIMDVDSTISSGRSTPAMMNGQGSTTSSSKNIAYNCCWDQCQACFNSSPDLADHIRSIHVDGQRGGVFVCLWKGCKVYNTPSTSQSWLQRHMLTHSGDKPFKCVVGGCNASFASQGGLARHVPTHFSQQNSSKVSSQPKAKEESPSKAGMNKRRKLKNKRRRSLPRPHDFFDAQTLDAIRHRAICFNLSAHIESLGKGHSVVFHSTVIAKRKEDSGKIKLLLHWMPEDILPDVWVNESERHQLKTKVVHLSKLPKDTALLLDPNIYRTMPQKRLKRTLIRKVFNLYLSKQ
Method: EZH2 residence time assay: Compound residence times were assessed by monitoring the recovery of enzyme activity following a 100-fold dilution of pre-formed enzyme-inhibitor complex (dilution reaction), and comparing it to the activity of an undiluted control with the same final concentrations of all reagents (control reaction). Enzyme activity was measured by incorporation of ^3H-SAM into a biotinylated H3 peptide. For the dilution reaction, 20 nM PRC2 containing wt EZH2 (pentameric complex prepared in-house) was pre-incubated with 1 μM activating peptide (H2N-RKQLATKAAR(Kme3)SAPATGGVKKP-amide) and compound at 600 times its Ki for 2 h in 40 μL of buffer (50 mM Tris pH 8.5, 4 mM DTT, 1 mM MgCl2, 0.07 mM Brij-35, and 0.1 mg/mL BSA), then diluted 100-fold and the reaction initiated by transferring 1.4 μL to a 138.6 μL volume of buffer containing 1 μM activating peptide, 5.05 μM substrate peptide (H2N-[…]-NTPEGbiot), 1.01 μM SAM, and 1.01 μM ^3H-SAM. […] Reactions were quenched at various time points spanning up to 10 hours, by transferring 8μL aliquots from the reaction vessel to a plate containing 8μL per well of STOP solution (50 mM Tris pH 8.5, 200 mM EDTA, 2 mM SAH). After the last time point, 12 μL of the quenched solutions were transferred to a streptavidin coated FlashPlate (PerkinElmer) containing 40 μL per well of STOP solution, incubated 1-8 h, washed, and read in a TopCount plate reader (PerkinElmer).
A custom script was used to fit control reaction progress data to a straight line and dilution reaction progress data:
[formula] Where y is the product formed, t is the reaction time, vi is the initial velocity, vs is the steady state velocity, and kobs is the rate constant for the transition from the initial velocity phase of the curve to the steady state velocity phase of the curve. In fitting the dilution reaction progress data, vs was constrained to the slope of the line fitted to the control reaction progress data. The fitted value of kobs was then transformed into residence time:
[formula] Where τ is residence time, Ki is the inhibition constant, [EI] is the calculated equilibrium concentration of enzyme-inhibitor complex, [E] is the calculated equilibrium concentration of free enzyme, and [I] is the calculated equilibrium concentration of free inhibitor.

PRC2 containing wt EZH2 [2] = biological target: T1, PRC2 containing wt EZH2; assay: EZH2 biochemical assay (IC50), 3H-SAM incorporation into biotinylated H3 peptide; settings: 30 pM PRC2 with wt EZH2, 3-5 h pre-incubation
Method: EZH2 biochemical assay (IC50): Compound potencies were assessed through incorporation of ^3H-SAM into a biotinylated H3 peptide. Specifically, 30 pM PRC2 containing wt EZH2 (pentameric complex prepared in-house) was pre-incubated with 450 nM SAM, 450 nM ^3H-SAM, 2 μM H3K27me3 activating peptide (H2N-RKQLATKAAR(Kme3)SAPATGGVKKP-amide) and compounds (as 10 point duplicate dose response titrations in DMSO, final assay 0.8% DMSO (v/v)) for 3-5 h in 50 mM Tris (pH 8.5), 1 mM DTT, 0.07 mM Brij-35, 0.1% BSA, and 0.8% DMSO in a total volume of 12.5 μl. Reaction was initiated with biotinylated H3 substrate peptide (H2N-RKQLATKAAR(Kmel)SAPATGGVKKP-NTPEGBiot) as a 2 μM stock in 12.5 μl of buffer and allowed to react at room temperature for 18-22 h. Quenching was accomplished by addition of 20 μl of STOP solution (50 mM Tris (pH 8.5), 200 mM EDTA, 2 mM SAH). 35 μl of the quenched solution was transferred to streptavidin coated FlashPlates (PerkinElmer), incubated 1-2 h, washed, and read in a TopCount Reader (PerkinElmer). IC50s were calculated in Genedata Screener using non-linear least square four parameter fits, where the four parameters were IC50, Hill slope, pre-transitional baseline (0% INH), and post-transitional baseline (100% INH).

[3] = recovery of enzyme activity after 100-fold dilution, read-out: EZH2 residence time (converted)

residence time (PRC2 containing wt EZH2 [1]; [3])	IC50 (PRC2 containing wt EZH2 [2])	Structure (SMILES)	residence time (PRC2 containing wt EZH2 [1]; read-out: EZH2 residence time)
> 6000 min	0.054 nM	CSc1cc(C)[nH]c(=O)c1CNC(=O)c1cc(Cl)c2c(c1C)OC(C)(C1CCC(N3CC(OC4CC4)C3)CC1)O2 (single isomer, unassigned) [Example 9]	–
> 6000 min	0.039 nM	Cc1cc(Cl)c(CNC(=O)c2cc(Cl)c3c(c2C)OC(C)(C2CCC(N4CC(OC5CC5)C4)CC2)O3)c(=O)[nH]1 (single isomer, unassigned) [Example 8, 7-chloro-N-((4-chloro-6-methyl-2-oxo-1,2-dihydropyridin-3-yl)methyl)-2-(4-(3-cyclopropoxyazetidin-1-yl)cyclohexyl)-2,4-dimethylbenzo[d][1,3]dioxole-5-carboxamide]	–
2880 min	0.084 nM	Cc1cc(Cl)c(CNC(=O)c2cc(Cl)c3c(c2C)OC(C)(C2CCC(N4CC(OC(F)F)C4)CC2)O3)c(=O)[nH]1 (single isomer, unassigned) [Example 13]	–
> 6000 min	0.092 nM	CSc1cc(C)[nH]c(=O)c1CNC(=O)c1cc(Cl)c2c(c1C)OC(C)(C1CCC(N3CC(F)C3)CC1)O2 (single isomer, unassigned) [Example 12]	–
2220 min	0.202 nM	CSc1nc(C)[nH]c(=O)c1CNC(=O)c1cc(Cl)c2c(c1C)OC(C)(C1CCC(N3CC(OC(F)F)C3)CC1)O2 (single isomer, unassigned) [Example 10]	–
> 6000 min	0.043 nM	COC1CN(C2CCC(C3(C)Oc4c(Cl)cc(C(=O)NCc5c(SC)cc(C)[nH]c5=O)c(C)c4O3)CC2)C1 (single isomer, unassigned) [Example 17, 7-chloro-2-(4-(3-methoxyazetidin-1-yl)cyclohexyl)-2,4-dimethyl-N-((6-methyl-4-(methylthio)-2-oxo-1,2-dihydropyridin-3-yl)methyl)benzo[d][1,3]dioxole-5-carboxamide]	–

Structure (SMILES)	residence time (PRC2 containing wt EZH2 [1]; [3])	IC50 (PRC2 containing wt EZH2 [2])	residence time (PRC2 containing wt EZH2 [1]; read-out: EZH2 residence time)
CSc1cc(C)[nH]c(=O)c1CNC(=O)c1cc(Cl)c2c(c1C)OC(C)(C1CCC(N3CC(OC(F)F)C3)CC1)O2 (single isomer, unassigned) [Example 1, 7-chloro-2-(4-(3-(difluoromethoxy)azetidin-1-yl)cyclohexyl)-2,4-dimethyl-N-((6-methyl-4-(methylthio)-2-oxo-1,2-dihydropyridin-3-yl)methyl)benzo[d][1,3]dioxole-5-carboxamide]	–	0.091 nM	> 6000 min
